This experiment relates to L. donovani-infected THP-1 macrophages, intracellular amastigote imaging. The experiment can be described thus: antileishmanial activity in infected THP-1 macrophages – imaging, THP-1 host macrophages, host toxicity (AID 1159564).
[1] abbreviates: measured here: THP-1 host cell toxicity.
[2] abbreviates: measured here: amastigotes per macrophage.

Calls of active or inactive are those of the source. No rule for the calls is given here.

A word on the IC50: it is the concentration that inhibits the measured activity by half.

With `O=[N+]([O-])c1ccc(-c2nnn(-c3cccnc3)n2)o1`, the IC50 was > 50 µM (inactive). The molecule further returned an IC50 under setting [1] of 13 µM. The molecule further registered an IC50 under setting [2] of 50 µM.

Take `COc1ccccc1-n1c(SCC(=O)Nc2ccc3c(c2)OCO3)nc2c(c1=O)SCC2`: the IC50 is 7.9 µM. Further, the IC50 under setting [1] was above 50 µM. Further, the IC50 under setting [2] was found to be 5 µM.

In the case of `O=S(=O)(c1ccccc1C(F)(F)F)N1CCN(Cc2ccc(-n3ccnc3)cc2)CC1`, the IC50 is > 50 µM (inactive). The same molecule returned an IC50 under setting [1] of 16 µM. Moreover, the half-inhibitory concentration (IC50) under setting [2] was found to be 25 µM.

Turning to `O=S(=O)(c1cccc(CSc2nnc(-c3ccc4c(c3)OCO4)o2)c1)N1CCOCC1`, the IC50 is 0.79 µM. Under setting [1], this molecule registered an IC50 above 50 µM. Besides, the IC50 under setting [2] came to 0.25 µM.

Consider `CCOc1cc(NCCCN2CCN(C)CC2)c2ncccc2c1`, for which the IC50 was 1.3 µM. Also, the IC50 under setting [1] is 6.3 µM. Moreover, the IC50 under setting [2] turned out to be 0.79 µM.

Turning to `O=C(CC1(O)C(=O)N(Cc2ccccc2)c2ccc(Br)cc21)c1cccnc1` (configuration not stated), the IC50 is > 50 µM (inactive). Moreover, the IC50 under setting [1] worked out at 40 µM. The molecule also registered an IC50 under setting [2] of 32 µM.

Turning to `Cc1ncsc1CNc1cnc(-c2ccc3c(c2)OCCO3)c(-c2cnn(C)c2)c1`, the IC50 was 16 µM. The molecule further displayed an IC50 under setting [1] of 16 µM. The same molecule gave an IC50 under setting [2] of 13 µM.

Regarding `CCc1cccc(-n2nc(OCC(=O)NC3CCCC3)c3cccnc32)c1`, the IC50 is 1 µM. Also, the IC50 under setting [1] was below 50 µM. This molecule displayed an IC50 under setting [2] of 1.3 µM.

On to `NC(=O)c1ncccc1Nc1nc(NC2CCC(O)CC2)ncc1Br` (configuration not stated), for which the IC50 is 1.3 µM. This molecule also came in with an IC50 under setting [1] of 0.4 µM. The same molecule came in with an IC50 under setting [2] of 0.63 µM.

As to `CCN(Cc1ccncc1)Cc1ccc(NC(=O)c2cc(-c3ccc(F)cc3)n[nH]2)cc1`, the IC50 was > 50 µM (inactive). For the same molecule, the IC50 under setting [1] came out at 5 µM. Further, under setting [2], the IC50 was found to be 2.5 µM.

Take `c1ccc(Nc2nc(-c3ccccn3)cc(N3CCOCC3)n2)cc1`: the IC50 was 2 µM. Moreover, the IC50 under setting [1] was above 50 µM. This molecule also had an IC50 under setting [2] of 1.3 µM.

For `CN(Cc1cc2ccccc2s1)c1ncc2c(N)nc(N)nc2n1`, the IC50 was 32 µM. Also, under setting [1], the IC50 was determined as 25 µM. The molecule further displayed an IC50 under setting [2] of 25 µM.

On to `CCCCNc1nccc(-c2c(-c3ccc(F)cc3)nn3c(N4CCOCC4)cccc23)n1`, for which the IC50 was 6.3 µM. In addition, the IC50 under setting [1] was 13 µM. For the same molecule, under setting [2], the IC50 was above 50 µM.

Turning to `CC(C)(C)C(O)(CCc1ccc(Cl)cc1)Cn1cncn1` (configuration not stated), the IC50 was > 50 µM (inactive). Moreover, the IC50 under setting [1] is above 50 µM. The molecule further displayed a concentration for half-maximal inhibition (IC50) under setting [2] above 50 µM.

Take `O=C(Nc1cccc(F)c1)N1CCC(Oc2cccc(-c3cccnc3)c2)CC1`: the IC50 was > 50 µM (inactive). The IC50 under setting [1] is 20 µM. Under setting [2], this molecule had an IC50 of 0.79 µM.

With `COc1ccc(C2C3CCCCC3(O)CCN2CC(=O)Nc2ccc(Cl)cc2Cl)cc1` (configuration not stated), the IC50 is 2.5 µM. Further, under setting [1], the IC50 is above 50 µM. The molecule also registered an IC50 under setting [2] of 0.79 µM.

For the molecule `COc1cc(Cl)c(C)cc1NC(=O)c1ccc([N+](=O)[O-])s1`, the IC50 was 6.3 µM. Also, the IC50 under setting [1] was above 50 µM. The IC50 under setting [2] is 5 µM.

For `O=C(NCCc1cccnc1)c1csc(-c2ccccc2)n1`, the IC50 is > 50 µM (inactive). Under setting [1], the IC50 was above 50 µM. Further, under setting [2], the IC50 was above 50 µM.

For `O=C(NC(CO)c1ccc(F)cc1)c1ccc(-c2c[nH]c3ncccc23)s1` (configuration not stated), the IC50 was 25 µM. Further, the IC50 under setting [1] is 10 µM. Moreover, the IC50 under setting [2] was 20 µM.

On to `Cc1ccc(S(=O)(=O)Nc2ccc(CN3CCN(C(=O)c4cccc(C#N)c4)CC3)cc2)cc1`, for which the IC50 is > 50 µM (inactive). The same molecule gave an IC50 under setting [1] above 50 µM. Under setting [2], the IC50 was found to be 25 µM.

On to `C[C@@H](Oc1cc(-n2cnc3cc(N)ccc32)sc1C(N)=O)c1ccccc1Cl`, for which the half-maximal inhibitory concentration (IC50) was 32 µM. The same molecule showed an IC50 under setting [1] of 25 µM. Besides, the IC50 under setting [2] was 20 µM.

As to `NCc1ccc2c(Cl)cc(Cl)c(O)c2n1`, the IC50 was 2 µM. Under setting [1], this molecule returned an IC50 of 20 µM. Besides, the IC50 under setting [2] worked out at 2 µM.

`CCCN1CCN(Cc2ccc(S(=O)(=O)Nc3cccc(C)c3)cc2)CC1`: the IC50 was > 50 µM (inactive). This molecule returned an IC50 under setting [1] above 50 µM. The molecule also displayed an IC50 under setting [2] above 50 µM.

For `Cn1nc(-c2ccc(NC(=O)Cc3ccccc3Cl)cc2)c2c(N)ncnc21`, the IC50 is > 50 µM (inactive). The IC50 under setting [1] was above 50 µM. This molecule also showed an IC50 under setting [2] above 50 µM.

As to `COc1ccc(C(=O)Nc2cc(C(F)(F)F)ccc2N2CCOCC2)c(OC)c1`, the IC50 is 10 µM. For the same molecule, the IC50 under setting [1] was 13 µM. Besides, the IC50 under setting [2] came to 7.9 µM.

As to `Cc1ccc2onc(Nc3ccnc(Nc4cccc(S(C)(=O)=O)c4)n3)c2c1`, the IC50 was 2 µM. The molecule also displayed an IC50 under setting [1] of 20 µM. Also, under setting [2], the IC50 is 1 µM.

On to `Cc1nccn1C1CCCN(C(=O)c2cc3c(F)cccc3s2)C1` (configuration not stated), for which the IC50 is > 50 µM (inactive). Besides, the IC50 under setting [1] was above 50 µM. The molecule also had an IC50 under setting [2] above 50 µM.

`CCCCn1c(=O)c2c(N)onc2n(CCCC)c1=O`: the IC50 was > 50 µM (inactive). This molecule also showed an IC50 under setting [1] above 50 µM. The same molecule displayed an IC50 under setting [2] of 32 µM.

As to `CCN(CC)c1nc(N(C)C)nc2c1CN(Cc1ccccc1)CC2`, the IC50 is 6.3 µM. The molecule further returned an IC50 under setting [1] of 40 µM. Moreover, the IC50 under setting [2] was 4 µM.

In the case of `CC(C)c1nn(-c2nc(N)nc(-c3ccccn3)n2)c(N)c1C1CCCCC1`, the IC50 was 1 µM. This molecule yielded an IC50 under setting [1] of 5 µM. Further, the IC50 under setting [2] was 0.79 µM.

As for `Cn1nc([N+](=O)[O-])nc1Oc1ccc(C(=O)c2ccccc2)cc1`, the IC50 was > 50 µM (inactive). In addition, the IC50 under setting [1] was above 50 µM. The same molecule had an IC50 under setting [2] above 50 µM.

With `C[C@@H](Oc1cc(-n2cnc3ccc(O[C@H]4CCNC4)cc32)sc1C(N)=O)c1ccccc1Cl`, the IC50 is 7.9 µM. This molecule also came in with an IC50 under setting [1] of 6.3 µM. The molecule further displayed an IC50 under setting [2] of 5 µM.

For the molecule `NC(=O)c1ncc(N[C@@H]2CCCNC2)nc1Nc1cccc(Cl)c1`, the IC50 was 0.79 µM. The IC50 under setting [1] worked out at 2 µM. The IC50 under setting [2] turned out to be 0.5 µM.

As to `CCCCCNC(=O)c1c[nH]c2ccc(S(=O)(=O)N(C)c3ccc(OCC)cc3)cc2c1=O`, the IC50 is > 50 µM (inactive). Besides, the IC50 under setting [1] is above 50 µM. The same molecule yielded an IC50 under setting [2] above 50 µM.

For the molecule `O=C1COC(c2ccccc2)(c2ccccc2)CN1C1CCN(Cc2ccc(-n3ccnc3)cc2)CC1`, the half-inhibitory concentration (IC50) was 16 µM. For the same molecule, the concentration for half-maximal inhibition (IC50) under setting [1] was found to be 16 µM. The molecule also had an IC50 under setting [2] of 13 µM.

For the molecule `Cc1nn(-c2nc3ccccc3[nH]2)c2c1C(c1ccc(O)cc1)CC(=O)N2` (configuration not stated), the IC50 is 1 µM. The IC50 under setting [1] was 6.3 µM. Also, under setting [2], the IC50 turned out to be 0.5 µM.

`O=C(Nc1ccc(Br)c(Cl)c1)Nc1ccc2c(c1)OCO2`: the IC50 is > 50 µM (inactive). In addition, the IC50 under setting [1] is above 50 µM. The same molecule had an IC50 under setting [2] above 50 µM.

Consider `Cc1nc(-c2ccc3c(c2)OCO3)sc1C(=O)NCc1ccc2c(c1)OCO2`, for which the IC50 is 0.25 µM. The molecule further returned an IC50 under setting [1] above 50 µM. The same molecule had an IC50 under setting [2] of 0.79 µM.

In the case of `Clc1ccc(C(CC2CCCCO2)Cn2cncn2)c(Cl)c1` (configuration not stated), the IC50 was > 50 µM (inactive). In addition, under setting [1], the IC50 was above 50 µM. Under setting [2], this molecule yielded an IC50 above 50 µM.

The record behind these values is PubChem BioAssay AID1159564 (GlaxoSmithKline (GSK), 2015).
